This note sets out measurements from patent US20170165317A1, “METHOD FOR MITIGATING OR ALLEVIATING SYNAPTIC AND COGNITIVE DEFICITS” (Trustees of Dartmouth College, priority 2013, published 2017).

Assay [1] has as its system hippocampal CA3 and CA1 cells from acute slices. The experiment in a line: fEPSP input-output curve (basal synaptic transmission) in acute hippocampal slices exposed to protofibrillar Aβ42. It counts as cell-based, mice. How it is done:
Mice were anesthetized with sodium pentothal (20 mg/kg ip) and decapitated. The brain was rapidly removed to ice-cold, oxygenated, dissection solution. Coronal slices (300 μm) were made with a vibratome (LEICA VT1200S) and slices were moved to a recovery chamber containing aCSF at room temperature for at least 1.5 hour before recording.
A concentric bipolar platinum-iridium stimulation electrode and a low-resistance glass recording microelectrode filled with aCSF (3-4 MΩ resistance) were placed in CA1 stratum radiatum to record the extracellular field excitatory postsynaptic potentials (fEPSPs). For each slice, an input-output curve was recorded to compare basal synaptic transmission at different conditions. This curve was also used to set the baseline fEPSP at ≈30% (for LTP experiments) or ≈50% (for LTD experiments) of maximal slope. Baseline stimulation was delivered every 15 seconds (0.01 ms duration pulses) for at least 20 minutes before beginning the experiment to ensure stability of the response. LTP was induced by using θ-burst stimulation (4 pulses at 100 Hz, with the bursts repeated at 5 Hz and each tetanus including three 10-burst trains separated by 15 seconds). LTD was induced using 900 pulses at 1 Hz. Responses were recorded for 1 hour after induction of LTP or LTD.
Dissection solution (employed for slicing) composition: 10 mM D-glucose, 4 mM KCl, 26 mM NaHCO3, 233.7 mM sucrose, 5 mM MgCl2, 1:1000 Phenol Red. Artificial CSF (employed for recovery and recording) composition: 119 mM NaCl, 2.5 mM KCl, 1 mM NaH2PO4, 11 mM glucose, 1.2 mM MgCl2, 2.5 mM CaCl2. Osmolarity was adjusted to […].
For the first approach, protofibrillar Aβ was prepared by promoting aggregation under high-salt conditions (258 μM Aβ42, room temperature incubation (Jan, et al. (2010) Nat. Protoc. 5:1186-1209). The kinetics of Aβ42 aggregation were followed by thioflavin T fluorescence and SDS-PAGE western blot analysis with the N-terminal anti-Aβ antibody 6E10. Also, the heterogeneous nature of these Aβ42 assemblies was evidenced by electron microscopy. Synaptic function was assessed by electrophysiological recordings of field excitatory postsynaptic potential (fEPSPs) between hippocampal CA3 and CA1 cells from acute slices prepared from 5-month-old mice. The results indicated a ≈60% decrease in the magnitude of synaptic transmission (input-output curve) when slices were incubated for 2 hours in aCSF containing pathogenic protofibrillar Aβ42 species (1 μM). This decrease in the basal synaptic transmission was prevented when Aβ was added to slices that were preincubated with the PTEN inhibitor (50 nM VO-OHpic) for 1 hour (VO-OHpic and Aβ were also present in the perfusion solution during electrophysiological recordings). VO-OHpic alone had no effect on basal synaptic transmission. […] The potency and specificity of this inhibitor have been documented previously (Rosivatz, et al. (2006) ACS Chem. Biol. 1:780-790).
The effect of these peptides on Aβ-treated neurons was subsequently tested.

The test system of assay [2] is APPswe/lnd-expressing neurons. Put plainly: Paired whole-cell recording of AMPAR-mediated EPSCs in APPswe/lnd-expressing CA1 neurons of organotypic hippocampal slices. It counts as cell-based, rat. The settings on record: 15 nM bPV(HOpic) or 50 nM VO-OHpic during expression. How it is done: The effect of recombinant protein expression on synaptic transmission was evaluated by simultaneous double whole-cell recordings from pairs of nearby infected and uninfected CA1 neurons, under voltage clamp, while stimulating presynaptic Schaffer collateral fibers (under this configuration, recombinant proteins are expressed exclusively in the postsynaptic neuron).
The different versions of APP (APPwt, APPswe/lnd APPMV) and EGFP were co-expressed using an internal ribosomal entry site (IRES) construct. The EGFP-tagged versions of PTEN have been described (Jurado, et al. (2010) EMBO J. 29:2827-2840). All constructs were prepared in pSinRep5 for expression using Sindbis virus. Recombinant proteins were expressed in hippocampal CA1 pyramidal neurons from organotypic slice cultures. Organotypic hippocampal slices were prepared from postnatal day 5-7 rats and cultured during 6-8 days.
The external solution (aCSF) contained 119 mM NaCl, 2.5 mM KCl, 1 mM NaH2PO4, 11 mM glucose, 26 mM NaHCO3, 4 mM MgCl2, 4 mM CaCl2, 100 μM picrotoxin and 2 μM 2-chloroadenosine, pH 7.4, and was gassed with 95% O2 and 5% CO2. […] Bipolar stimulating electrodes were placed over Schaffer collateral fibers between 250 and 300 μm from the CA1 recorded cells, and synaptic responses were evoked with single voltage pulses (200 μs, up to 30 V). […]

Regarding `O=C(O)c1ncccc1O.O=C(O)c1ncccc1O.[O]=[V][O-]` [VO-OHpic], in assay [1] (50 nM VO-OHpic preincubated 1 hour, then 1 μM protofibrillar Aβ42 for 2 hours), the “Aβ42-induced decrease in basal synaptic transmission” value is “prevented”. The “basal synaptic transmission, inhibitor alone” value in assay [1] (VO-OHpic alone, no Aβ) is given as “no effect”. Besides, in assay [2], the “AMPAR-mediated EPSCs in APPswe/lnd-expressing neurons relative to uninfected cells” value is “no longer depressed”.
